Data set [1] in a line: Tensile strength of gamma irradiated cartridges, initially and after storage at 37° C. The note with it: initially after irradiation and after 3 and 8 months storage at 37° C. Type of data set: physicochemical. As for the experimental part:
Approximately 15-20 cartridges of each formulation were prepared and gamma irradiated at 10-11 kGy. The tensile strength of five cartridges from each formulation was measured initially. The remaining cartridges were stored at 37° C. and tested for tensile strength again at 3 and 8 months.

For data set [2] the following is noted: cited from earlier work; for CMC: critical micelle concentration; for HLB: hydrophilic-lipophilic balance.

`O=C1O[C@H]([C@@H](O)CO)C(O)=C1O` [Ascorbic acid, ascorbic acid]: the “tensile strength of cartridges, in words” value in data set [1] is “seems to be effective as well”.
Regarding `CCCCCCCC/C=C\CCCCCCCC(=O)OCCOCC(OCCO)C1OCC(OCCO)C1OCCO` (stereo not shown) [Tween 80], in data set [2], the CMC is 0.012 mM and the HLB is recorded as 15.
On to Sucrose monolaurate, for which, in data set [2], the CMC is 0.2 mM and the HLB is about 8.
For Triton X-100, in data set [2], the CMC is 0.2 to 0.9 mM and the HLB is 13.5.

(Values after patent US9120249B2, “Implant device release agents and methods of using same” (ENDO PHARMACEUTICALS SOLUTIONS INC., priority 2007, dated 2015).)
